Here are results for three molecules from US20050272068A1, “UCH-L1 expression and cancer therapy” (The Brigham and Women's Hospital, Inc., priority 2004, published 2005).

“Also recorded” adds a separate entry of the source.

For data set [1], the system named is UCH-L1. In words: Pulse-chase experiment, UCH-L1 turnover in SH-SY5Y cells. The class given is cell-based. The note with it: pulse-chase experiment not shown. An excerpt: Treatment with FTI-277 reduced the total amount of UCH-L1 in SH—SY5Y cells and increased its rate of turnover (pulse-chase experiment not shown), in addition to reducing the amount of membrane-associated protein.

Data set [2] has as its system SH-SY5Y cells. Nature of the data set: alpha-synuclein toxicity in SH-SY5Y cells infected with alpha-synuclein-expressing adenovirus (Trypan blue viable cell counting, MTT assay). Type of data set: cell-based. The note with it: SH-SY5Y cells overexpressing alpha-synuclein via adenoviral vector, compounds for 48 hours, vs DMSO. The procedure:
(§1) Viral Infection: Viral infection and MTT assay in SH—SY5Y cells: The viruses were amplified and purified according to the published procedure. SH—SY5Y cells were grown on 100 mm petri-dishes and induced with 100 nM RA for 3-5 days before the virus infection with M.I.O at 75. Viruses were diluted with DPBS to desired M.I.O. After four hours of incubation, 10 ml growth medium was added. On the second day, cells were splitted into 96-well plates and treated with compounds for next 48 hours. The growth medium in each well was replaced with growth medium with 5 ug/ml MTT. Medium was removed after three hours incubation, and 200 ul isopropyl (0.04N HCl) was added into each well. The signal was read at 570 nm.
Viable cell counting: At stated time poins, SH—SY5Y cells were trypsinized with 100 ul trypsin-EDTA for 1 minute and neutralized with 400 ul growth medium. Cell suspension was made up by mixing 0.2 ml of cells in growth medium, 0.3 ml of HBSS and 0.5 ml of 0.4% Trypan Blue solution. Viable cell numbers were counted by standard cell counting chamber.
Since α-synuclein neurotoxicity is dose-dependent, it follows that accumulation of α-synuclein, caused by UCH-L1 farnesylation, should promote its toxicity. […] These cells express high endogenous levels of UCH-L1. […] The unit of y-axis is 10^5/ml. (F) Cell viability was assessed by the amount of metabolic activity using MTT assay. […]
(In general: Tetrazolium assays rely on reduction of a dye to a coloured formazan, in cell work by metabolically active cells.)

In data set [3] the test system is α-synuclein. Nature of the data set: Amount of alpha-synuclein in infected SH-SY5Y cells by Western blotting. The class given is cell-based. The note with it: SH-SY5Y cells infected with alpha-synuclein-expressing adenovirus, normalized against actin. As to the method: as §1
Western Blotting: Following transfer of SDS gels onto NC membrane, all membranes were blocked with 5% non-fat milk in TBST (50 mM Tris-HCl pH7.4, 150 mM NaCl, 0.1% Tween 20), and incubated with primary antibody overnight with 1% BSA in TBST, washed three times with TBST, and incubated with horseradish peroxidase-conjugated secondary antibody for 1 hour (Promega). Bound antibodies were detected using enhanced chemiluminascence (NEM).
Since α-synuclein neurotoxicity is dose-dependent, it follows that accumulation of α-synuclein, caused by UCH-L1 farnesylation, should promote its toxicity. […] (F) Cell viability was assessed by the amount of metabolic activity using MTT assay. […]
A general note: A western blot detects proteins with antibodies after separation by electrophoresis.

Data set [4] has as its system UCH-L1. In words: UCH-L1 species in SH-SY5Y cells by 2D electrophoresis and Western blotting (membrane, cytosolic, total). The class given is cell-based. As to the method: Membrane fractionation: Cells were harvested by scraping and washed with PBS. Cell pellet was suspended in lysis buffer (50 mM Tris-HCl, 1 mM EDTA) supplemented with protease inhibitor cocktail (Sigma) and homogenized by passing through 26G needles 10 times. Suspension was clarified by spinning at 600 g for 5 minutes. Clarified suspension was ultracentrifuged at 100,000 g for 2 hours and separated into membrane and cytosol. Membrane fraction was washed with washing buffer (50 mM Tris-HCl, 1 mM EDTA 1M NaCl), and pelleted each time with bench-top centrifuge.
2D electrophoresis: For the isolation of total cellular protein, cultured SH—SY5Y cells maintained as described above were rinsed with ice-cold PBS. Cells were lysed in 1 ml dSDS buffer (50 mM Tris-HCl, pH 8.0 0.1% SDS) supplemented with protease inhibitor cocktail. Lysates were boiled for 3 min, and were treated with Dnase and Rnase as described. Lysates were precipitated with ice-cold acetone for at least 2 hours, and pellets were resuspended in 2D sample buffer (8M urea, 0.5% CHAPS, 0.2% DTT, 0.5% IPG buffer, 0.002% bromophenol blue). 2D electrophoresis was carried out according to manufacture's protocol (Amersham Life Science). 7 cm pH 4-7 strips were used. For SH—SY5Y membrane fraction, culture SH—SY5Y cells were rinsed with cold PBS and harvested with lysis buffer (50 mM Tris-HCl, pH 8.0, 1 mM ZnAc2, 250 mM sucrose). Lysate was passed through 25 G needles for several times and spun at 1000 g for 5 min. Supernatant was centrifuged at 200,000 g for 2 hours. Pellet was extensively washed with lysis buffer and extracted with cold acetone. Pellet was resuspended in 2D sample buffer.
Western Blotting: Following transfer of SDS gels onto NC membrane, all membranes were blocked with 5% non-fat milk in TBST (50 mM Tris-HCl pH7.4, 150 mM NaCl, 0.1% Tween 20), and incubated with primary antibody overnight with 1% BSA in TBST, washed three times with TBST, and incubated with horseradish peroxidase-conjugated secondary antibody for 1 hour (Promega). Bound antibodies were detected using enhanced chemiluminascence (NEM). […]

Data set [5] deals with H358. Nature of the data set: Cell growth by counting living cells as a function of time, H358. The class given is cell-based. Particulars: 100 nM FTI-277, H358 does not express UCH-L1, vs DMSO control. The procedure: (§2) To test the effect of farnesyl transferase inhibitor in a cell culture model, H1299 and H358 (FIG. 5B) were treated with 100 nM FTI-277 or DMSO. As a comparison, H1299 was also treated with 5 μM LDN-57414 (UCH-L1 inhibitor), which we have previously shown to increase H1299 cell proliferation (Liu et al 2003). Cell growth was quantified by counting the number of living cells as a function of time. […] The initial acceleration of cell growth in H1299, thus, may be the consequence of inhibition on UCH-L1 farnesylation. This possibility may explain the minimal clinical activity of farnesyl transferase inhibitor in treating patients with NSCLC.

In data set [6] the test system is H1299. Nature of the data set: Cell growth by counting living cells as a function of time, H1299. The class given is cell-based. The procedure: as §2
Data set [7] has as its system α-synuclein. In words: alpha-synuclein degradation assay in transfected COS-7 cells (quantitative Western blotting). Particulars: 35 μM lactacystin 24 hours, normalized against actin, defines the 100% reference. The class given is cell-based. An excerpt:
Plasmids: C220S cDNA was generated by PCR site-specific mutagenesis. For the PCR, the 5′ primer is uchforw ([…]) (SEQ ID NO: 5), and 3′ primer is uchc220s ([…] TGCTGAGAGC) (SEQ ID NO: 6). Wt UCH-L1 served as the template. The PCR fragment was inserted into pcDNA vector. For S18YC220S mutant, S18Y UCH-L1 served as the template in PCR. For the FLAG tagged UCH-L1, the 5′ primer is FLAGuchforw ([…] GCAGCTCAAGCCGATGGAG) (SEQ ID NO: 7), and the 3′ primer is uchrev ([…]) (SEQ ID NO: 8). Wt UCH-L1 or C220S served as the template. PCR fragment was purified and inserted into pcDNA vector. For the FLAG tagged UCH-L3, the 5′ primer is L3HindIII ([…] CTG) (SEQ ID NO: 9), the 3′primer is L3XhoISAA (ATCCTCGAGCTATGCT GCAGAAAGAGCAATCGCA) (SEQ ID NO: 10). For the UCH-L3 CKAA variant, the 5′ primer is L3 HindIII and the 3′ primer is L3XhoICKAA (ATCCTCGAGCTA […]) (SEQ ID NO: 11). α-synuclein degradation assay: Liphitamine 2000 was used to transfect COS-7 cells according to the Invitrogen protocol. Transfected cells were cultured at 37° C. for 48 hours before being treated with 35 μM lactacystin or DMSO. After 24 hours of incubation, the cells were lysed with Tris buffer (50 mM Tris, 2% SDS, 0.1% NP-40), and subjected to SDS-PAGE, followed by quantitative Western blotting. […]

Data set [8] deals with the molecule itself. In words: self-oligomerisation of purified protein, method not described.
[9] abbreviates: compared to cells treated with DMSO.

Take `COC(=O)[C@H](CCSC)NC(=O)c1ccc(NC[C@@H](N)CS)cc1-c1ccccc1` [FTI-277]: the “UCH-L1 rate of turnover” value in data set [1] is given as “increased”. In addition, the “alpha-synuclein toxicity (loss of cells / viability)” value in data set [2] was “significantly decreased loss of cells; also recorded: rescued; also recorded: protects”. Besides, the amount of alpha-synuclein entry in data set [3] is given as “reduced; also recorded: reducing”. For the same molecule, the “total amount of UCH-L1” value in data set [4] is given as “reduced”. Also, in data set [4] (setting [9]), the “amount of cytosolic UCH-L1” value is on record as “without affecting” and the “amount of membrane bound UCH-L1” value is on record as “significant decrease; also recorded: decreased; also recorded: reducing”. Besides, the “initial cell growth in H358” value in data set [5] is “induced initial toxicity”. For the same molecule, in data set [6] (100 nM FTI-277, vs DMSO control), the “initial cell growth in H1299” value is recorded as “promoted initial cell growth”. Moreover, the “H1299 cell growth after 24 hours of compound treatment” value in data set [6] (100 nM FTI-277 or 5 μM LDN-57414) was “began to show toxicity”.

The molecule `CC(=O)N[C@@H](CSC(=O)[C@]1([C@@H](O)C(C)C)NC(=O)[C@H](C)[C@@H]1O)C(=O)O` [lactacysteine] displayed an accumulation of alpha-synuclein in data set [7] of 100%.

B1: UCH-L1 C220S mutant (S18 background), expressed in E. coli and purified (enzyme, UniProt P09936 1-223, looked up)
chain: MQLKPMEINPEMLNKVLSRLGVAGQWRFVDVLGLEEESLGSVPAPACALLLLFPLTAQHENFRKKQIEELKGQEVSPKVYFMKQTIGNSCGTIGLIHAVANNQDKLGFEDGSVLKQFLSETEKMSPEDRAKCFEKNEAIQAAHDAVAQEGQCRVDDKVNFHFILFNNVDGHLYELDGRMPFPVNHGASSEDTLLKDAAKVCREFTEREQGEVRFSAVALSKAA
notes: also called C220S variant
For the molecule B1, the binding result in data set [8] is on record as “binds”.
